Non-standard residues stand in square brackets, D forms with d. No end group written: not given here. pS = N[C@@H](COP(=O)(O)O)C(=O)O

One sequence from patent US20260209823A1, “KINASE/PHOSPHATASE SUBSTRATE ANALYSIS AND COMPOSITIONS USING SPECTRALLY ENCODED MICROBEADS” (CZ Biohub SF, LLC, priority 2022, published 2026) can be followed below.

In this test the test system is Protein phosphatase 1 (PP1). Description: Bead-based multiplexed phosphatase activity assay (pIMAGO detection on spectrally encoded beads). To be noted: beads incubated with PP1 versus buffer only. The format is biochemical. As to the method: FIG. 2A-B: Overview and example data from bead-based multiplexed phosphatase activity assay. A) Experimental setup of phosphatase assay. Beads with indicated peptides are incubated with either PP1 (top) or Buffer only (bottom). The beads are washed and the phopsphorylation status of the peptides on the beads is detected using pImago. The beads are analyzed using a microscope capable of exciting beads with UV light and then identifying the spectral code embedded within each bead. B) Preliminary data showing the effect of PP1 phosphatase treatment on the phosphorylation status of the TSFFXGISPIEEEAH peptide (X indicates phosphorylated Serine).
An assay to measure dephosphorylation is performed by incubating the (phospho) substrate peptides, e.g., synthesized directly on the encoded beads, with a phosphatase of interest. […] These images can then be analyzed using open-source image analysis software, e.g., Harink et al., PLOS ONE 2019, to identify the code (and thus the peptide sequence) and amount of phosphorylation associated with each bead. The ratio of phosphorylation detected between a control reaction in the absence of the phosphatase and in the presence of the phosphatase allows determination of how efficiently different peptide sequences are dephosphorylated. […]

With TSFFXGISPIEEEAH (TSFF[pS]GISPIEEEAH), the “pIMAGO signal (phosphorylation status of bead-bound peptide) after PP1 treatment” value was “loss of the signal”.
